Patent EP4722201A1, “3-PHENYLISOXAZOLINE-5-CARBOXAMIDE COMPOUND, AND PREPARATION METHOD THEREFOR, HERBICIDAL COMPOSITION THEREOF AND USE THEREOF” (Jiangsu Flag Chemical Industry Co., Ltd, priority 2023, dated 2024)

What was measured:
Test in all cases: Indoor herbicide activity determination, Seed Treatment; pre-emergence (soil spray)
Format in all cases: in vivo
Alopecurus japonicus = system: Alopecurus japonicus
From the text: (§1) The testing method for herbicide activity of the compound of the present invention was as follows:
(§2) Seed Treatment; pre-emergence: quantitative seeds of gramineous weeds (Echinochloa crusgalli, Eleusine indica, Digitaria sanguinalis, Alopecurus japonicus, Beckmannia syzigachne, Leptochloa chinensis, Polypogon fugax, Alopecurus aequalis, Lolium multiflorum, Poa annua, Aegilops tauschii, Avena fatua, Alopecurus myosuroides, Alopecurus japonicus and Alopecurus aequalis), broad-leaved weeds (Eclipta prostrata, Amaranthus retroflexus, Rorippa indica, Malachium aquaticum, Veronica polita, Conyza canadensis, Sesbania cannabina, Sagittariatrifolia and Schoenoplectiella juncoides), and Cyperus iria were sown in plastic pots having a diameter of 7 cm and holes at the bottom and filled with nutrient soil (sandy soil, pH 6.1, organic matter 1%) respectively, the seeds were covered with an appropriate amount of soil after being sown, then the soil was wetted with water from the bottom, the seeds were cultured in a constant-temperature illuminated culture room for 24 h, and the soil was sprayed by using a 3WP-2000 traveling spray tower produced by the Nanjing Institute of Agricultural Mechanization of the Ministry of Agriculture, where a rotational speed of a main shaft was 96 mm/r, a spray height was 300 mm, an effective spraying range of a nozzle was 350 mm, a spray area was 0.35 m^2, and a flow rate at the nozzle was 390 mL/min.
(§3) Post-emergence: an appropriate quantity of seeds of gramineous weeds (Echinochloa crusgalli, Eleusine indica, Digitaria sanguinalis, Alopecurus japonicus, Beckmannia syzigachne, Leptochloa chinensis, Polypogon fugax, Alopecurus aequalis, Lolium multiflorum, Poa annua, Aegilops tauschii, Avena fatua, Alopecurus myosuroides, Alopecurus japonicus and Alopecurus aequalis), broad-leaved weeds (Eclipta prostrata, Amaranthus retroflexus, Rorippa indica, Malachium aquaticum, Veronica polita, Conyza canadensis, Sesbania cannabina, Sagittariatrifolia and Schoenoplectiella juncoides), and Cyperus iria were sown in plastic pots having a diameter of 7 cm and holes at the bottom and filled with nutrient soil (sandy soil, pH 6.1, organic matter 1%) respectively, the seeds were covered with an appropriate amount of soil after being sown, then the soil was wetted with water from the bottom, the seeds were cultured in a constant-temperature illuminated culture room until a 2-4 leaf stage, and stems and leaves underwent spray treatment. After the treatment, the test materials were placed in a laboratory and cultured in the constant-temperature illuminated culture room after the liquid was naturally dry in the shade, and results were determined 21 days later. Inhibition rate of fresh weight % = (1−(fresh weight of treated plants)/(fresh weight of control plants)) × 100% [formula]

Alopecurus myosuroides = system: Alopecurus myosuroides
From the text: as §1, §2, §3

Cyperus iria = settings: read-out: Herbicidal activities (inhibition rate) Cyperus iria; for inhibition at 120 g/ha: 120 g a.i./ha; for inhibition at 60 g/ha: 60 g a.i./ha
From the text: as §1, §2, §3

Digitaria sanguinalis = settings: read-out: Herbicidal activities (inhibition rate) Digitaria sanguinalis; for inhibition at 60 g/ha: 60 g a.i./ha
From the text: as §1, §2, §3

Eclipta prostrata = settings: read-out: Herbicidal activities (inhibition rate) Eclipta prostrata; for inhibition at 120 g/ha: 120 g a.i./ha; for inhibition at 60 g/ha: 60 g a.i./ha
From the text: as §1, §2, §3

Eleusine indica = system: Eleusine indica
From the text: as §1, §2, §3

Leptochloa chinensis = system: Leptochloa chinensis
From the text: as §1, §2, §3

Lolium multiflorum = system: Lolium multiflorum
From the text: as §1, §2, §3

Aegilops tauschii = settings: read-out: Herbicidal activities (inhibition rate) Aegilops tauschii
From the text: as §1, §2, §3

SMILES | Herbicidal activities, Alopecurus japonicus (inhibition rate class) (Alopecurus japonicus; Dosage 120 g a.i./ha) | Herbicidal activities, Alopecurus myosuroides (inhibition rate class) (Alopecurus myosuroides; Dosage 120 g a.i./ha) | inhibition at 60 g/ha (Cyperus iria) [%] | inhibition at 60 g/ha (Eclipta prostrata) [%] | Herbicidal activities, Eleusine indica (inhibition rate class) (Eleusine indica; Dosage 120 g a.i./ha) | Herbicidal activities, Leptochloa chinensis (inhibition rate class) (Leptochloa chinensis; Dosage 120 g a.i./ha) | Herbicidal activities, Lolium multiflorum (inhibition rate class) (Lolium multiflorum; Dosage 120 g a.i./ha) | inhibition at 60 g/ha (Digitaria sanguinalis) [%] | further results
C=CC1(C(=O)N[C@H]2C[C@@H](C(=O)OC)C2)CC(c2cc(F)cc(F)c2)=NO1 (stereo partly shown) [I-3] |  |  |  |  |  |  |  |  | Herbicidal activities, Alopecurus japonicus (inhibition rate class) (Alopecurus japonicus; Dosage 240 g a.i./ha): A (A indicates that the inhibition rate was greater than or equal to 80% to 100%); Herbicidal activities, Alopecurus myosuroides (inhibition rate class) (Alopecurus myosuroides; Dosage 240 g a.i./ha): A (A indicates that the inhibition rate was greater than or equal to 80% to 100%); inhibition at 120 g/ha (Cyperus iria): 80 to 100%; inhibition at 120 g/ha (Digitaria sanguinalis; 120 g a.i./ha): 80 to 100%; inhibition at 120 g/ha (Eclipta prostrata): 80 to 100%; Herbicidal activities, Eleusine indica (inhibition rate class) (Eleusine indica; Dosage 240 g a.i./ha): A (A indicates that the inhibition rate was greater than or equal to 80% to 100%); Herbicidal activities, Leptochloa chinensis (inhibition rate class) (Leptochloa chinensis; Dosage 240 g a.i./ha): A (A indicates that the inhibition rate was greater than or equal to 80% to 100%); Herbicidal activities, Lolium multiflorum (inhibition rate class) (Lolium multiflorum; Dosage 240 g a.i./ha): A (A indicates that the inhibition rate was greater than or equal to 80% to 100%)
C=C[C@]1(C(=O)N[C@H]2C[C@@H](C(=O)NOC(C)C)C2)CC(c2cc(F)cc(Cl)c2)=NO1 [I-36] | A (A indicates that the inhibition rate was greater than or equal to 80% to 100%) | A (A indicates that the inhibition rate was greater than or equal to 80% to 100%) | 60 to 80 | 60 to 80 | A (A indicates that the inhibition rate was greater than or equal to 80% to 100%) | A (A indicates that the inhibition rate was greater than or equal to 80% to 100%) | B (B indicates that the inhibition rate was greater than or equal to 60% to less than 80%) |  | inhibition at 60 g/ha (Aegilops tauschii; 60 g a.i./ha): 60 to 80%
C=C[C@]1(C(=O)N[C@H]2C=C[C@@H](C(=O)O)C2)CC(c2cc(F)cc(C(F)(F)F)c2)=NO1 [I-426] | A (A indicates that the inhibition rate was greater than or equal to 80% to 100%) | A (A indicates that the inhibition rate was greater than or equal to 80% to 100%) | 80 to 100 | 60 to 80 | A (A indicates that the inhibition rate was greater than or equal to 80% to 100%) | A (A indicates that the inhibition rate was greater than or equal to 80% to 100%) | A (A indicates that the inhibition rate was greater than or equal to 80% to 100%) | 80 to 100 | 
C=C[C@]1(C(=O)N[C@H]2C=C[C@@H](C(=O)OC)C2)CC(c2cc(F)cc(C(F)(F)F)c2)=NO1 [I-428] | A (A indicates that the inhibition rate was greater than or equal to 80% to 100%) | A (A indicates that the inhibition rate was greater than or equal to 80% to 100%) | 80 to 100 | 60 to 80 | A (A indicates that the inhibition rate was greater than or equal to 80% to 100%) | A (A indicates that the inhibition rate was greater than or equal to 80% to 100%) | A (A indicates that the inhibition rate was greater than or equal to 80% to 100%) | 80 to 100 | 
C=C[C@]1(C(=O)N[C@H]2C=C[C@@H](C(=O)OCCCOC)C2)CC(c2cc(F)cc(C(F)(F)F)c2)=NO1 [I-436] | A (A indicates that the inhibition rate was greater than or equal to 80% to 100%) | A (A indicates that the inhibition rate was greater than or equal to 80% to 100%) | 60 to 80 | 60 to 80 | A (A indicates that the inhibition rate was greater than or equal to 80% to 100%) | A (A indicates that the inhibition rate was greater than or equal to 80% to 100%) | B (B indicates that the inhibition rate was greater than or equal to 60% to less than 80%) | 80 to 100 | 
C=C[C@]1(C(=O)N[C@H]2C=C[C@@H](C(=O)OCCC)C2)CC(c2cc(F)cc(C(F)(F)F)c2)=NO1 [I-437] | A (A indicates that the inhibition rate was greater than or equal to 80% to 100%) | A (A indicates that the inhibition rate was greater than or equal to 80% to 100%) | 80 to 100 | 60 to 80 | A (A indicates that the inhibition rate was greater than or equal to 80% to 100%) | A (A indicates that the inhibition rate was greater than or equal to 80% to 100%) | A (A indicates that the inhibition rate was greater than or equal to 80% to 100%) | 80 to 100 | 
C=C[C@]1(C(=O)N[C@H]2C=C[C@@H](C(=O)OCCOC)C2)CC(c2cc(F)cc(C(F)(F)F)c2)=NO1 [I-443] |  |  | 80 to 100 | 80 to 100 | A (A indicates that the inhibition rate was greater than or equal to 80% to 100%) | A (A indicates that the inhibition rate was greater than or equal to 80% to 100%) |  | 80 to 100 | 
COC(=O)[C@@H]1C=C[C@H](NC(=O)C2(C)CC(c3cc(F)cc(C(F)(F)F)c3)=NO2)C1 (stereo partly shown) [I-495] |  |  |  |  |  |  |  |  | inhibition at 120 g/ha (Aegilops tauschii; 120 g a.i./ha): 80 to 100%; Herbicidal activity (inhibition rate class), Alopecurus japonicus (Alopecurus japonicus; Dosage 240 g a.i./ha): A (A indicates that the inhibition rate was greater than or equal to 80% to 100%); Herbicidal activity (inhibition rate class), Alopecurus myosuroides (Alopecurus myosuroides; Dosage 240 g a.i./ha): A (A indicates that the inhibition rate was greater than or equal to 80% to 100%); inhibition at 120 g/ha (Cyperus iria): 80 to 100%; inhibition at 120 g/ha (Eclipta prostrata): 60 to 80%; Herbicidal activity (inhibition rate class), Eleusine indica (Eleusine indica; Dosage 240 g a.i./ha): A (A indicates that the inhibition rate was greater than or equal to 80% to 100%); Herbicidal activity (inhibition rate class), Leptochloa chinensis (Leptochloa chinensis; Dosage 240 g a.i./ha): A (A indicates that the inhibition rate was greater than or equal to 80% to 100%); Herbicidal activity (inhibition rate class), Lolium multiflorum (Lolium multiflorum; Dosage 240 g a.i./ha): A (A indicates that the inhibition rate was greater than or equal to 80% to 100%)
C[C@]1(C(=O)N[C@H]2C=C[C@@H](C(=O)OCCBr)C2)CC(c2cc(F)cc(C(F)(F)F)c2)=NO1 [I-501] |  |  | 60 to 80 | 60 to 80 |  |  |  | 80 to 100 | Herbicidal activity (inhibition rate class), Eleusine indica (Eleusine indica; Dosage 120 g a.i./ha): A (A indicates that the inhibition rate was greater than or equal to 80% to 100%); Herbicidal activity (inhibition rate class), Leptochloa chinensis (Leptochloa chinensis; Dosage 120 g a.i./ha): A (A indicates that the inhibition rate was greater than or equal to 80% to 100%)
COC(=O)[C@@H]1C=C[C@H](NC(=O)[C@@]2(C(F)(F)F)CC(c3cc(Cl)cc(C(F)(F)F)c3)=NO2)C1 [I-524] |  |  | 80 to 100 | 60 to 80 |  |  |  | 80 to 100 | Herbicidal activity (inhibition rate class), Alopecurus japonicus (Alopecurus japonicus; Dosage 120 g a.i./ha): A (A indicates that the inhibition rate was greater than or equal to 80% to 100%); Herbicidal activity (inhibition rate class), Alopecurus myosuroides (Alopecurus myosuroides; Dosage 120 g a.i./ha): B (B indicates that the inhibition rate was greater than or equal to 60% to less than 80%); Herbicidal activity (inhibition rate class), Eleusine indica (Eleusine indica; Dosage 120 g a.i./ha): A (A indicates that the inhibition rate was greater than or equal to 80% to 100%); Herbicidal activity (inhibition rate class), Leptochloa chinensis (Leptochloa chinensis; Dosage 120 g a.i./ha): A (A indicates that the inhibition rate was greater than or equal to 80% to 100%)
